From US20190388377A1, “COMPOSITIONS AND METHODS FOR THE TREATMENT OF LIVER DISEASES AND DISORDERS” (AXCELLA HEALTH INC., priority 2018, published 2019)

What was measured:
[1] = tested on: primary human hepatocytes; assay: Intracellular triglyceride level after 72 h, colorimetric assay, Example 3; format: cell-based
Method: On day 2, cells were washed twice with DPBS 1× (Gibco) and maintained in: • a. Amino acid-free WEM (US Biologicals) supplemented with 11 mM Glucose (Sigma), 0.272 mM Sodium Pyruvate (Sigma), 1× P/S (Gibco) and containing a defined custom amino acid concentration based on the mean physiological concentrations in blood (1× HMDB WEM (−) supplemental amino acids); or • b. The same media described above 1×HMDB WEM (+) supplemental amino acids treatment dose at a 30× of HMDB amino acid concentration. Cells were maintained in the defined amino acids media (a. & b.) for 24 hours at 37° C., 5% CO2. Co-Treatment with Free Fatty Acids and Various Amino Acids Supplemental Treatments
After 24 h pre-treatment, cells maintained in the same media (a. & b.) described above 1×HMDB±supplemental amino acids were now exposed to free fatty acids (FFA) at 250 uM with a ratio of 2:1 (Oleate:Palmitate) supplemented with TNF-α (Thermofisher) at 1 ng/ml or vehicle. Cells with the FFAs+TNFα mixture±amino acids treatments were incubated for 72 hours at 37° C., 5% CO2 with a media change after the first 24 hours.
After 72 hours, cells were washed once with cold PBS 1× (Gibco), scrapped off and collected into 75 ul of standard diluent (Cayman). Collected cells were vortexed for 1 min at a 2500 rpm speed followed by two times sonication (Elmasonic sonicator) for 1 min each. Supernatants were collected for triglyceride analysis after centrifugation at 1000 rpm for 10 min at 4° C. Intracellular triglyceride level was assessed using triglyceride colorimetric assay kit (Cayman) and following manufacturer's recommendations. Data was normalized to the total amount of protein using Bicinchoninic Acid Protein Assay Kit (Sigma). Data is reported as median fold change from FFAs+TNFα condition, statistical analysis was done using t-Test.

TNFa = TNFa secretion by ELISA, LPS-treated primary human M1 macrophages, Example 5; format: cell-based
Method: (§1) Primary human PMBC derived macrophages were seeded on day 0 at 3.0E4 cells per well in 96-well microplates (ThermoFisher) in Dulbecco's Modified Eagle Medium (DMEM) (Gibco) supplemented with penicillin-streptomycin (Hyclone) and 10% heat inactivated fetal bovine serum (HI-FBS) (Atlanta Bio) and incubated overnight at 37° C., 5% CO2. On day 1, cells were washed once with 150 uL per well DPBS (Gibco) and treated with 75 uL of: • a. Amino acid free DMEM (US Biologicals) containing a defined custom amino acid concentration based on the mean physiological concentrations in blood based on values published in the Human Metabolome Database (HMDB), with 6 mM glucose, 1 mM sodium pyruvate, 10 mM HEPES, 0.2% primocin (InVivoGen); or • b. The same media described above with supplemental amino acid and amino acid combination treatments at various concentrations. […]
(§2) On day 3, the supernatant was collected and immediately frozen in −80° C. freezer. Cells were washed once with 150 uL DPBS and viability was assessed using the WST-8 Cell Proliferation Cytotoxicity Assay (Dojindo). […] Protein levels in supernatant samples were analyzed by ELISA for IL-6 and TNFa using commercially available kits (R&D Systems) according to manufacturer-supplied protocols.

IL-6 = IL-6 secretion by ELISA, LPS-treated primary human M1 macrophages, Example 5; format: cell-based
Method: as §1, §2

Albumin = Albumin secretion after 72 h by ELISA, PHH model, Example 2; format: cell-based, human; conditions: FFA+TNFα
Method: PHH from two healthy human donors (Lonza, TRL) were seeded on day 0 at density of 6e04 cells in 96 well optical microplates (Thermofisher) in hepatocyte plating media (William's E medium, WEM) (Gibco) supplemented with 10% heat-inactivated FBS (Atlanta Bio), 2 mM Glutamax (Gibco), and 0.2% Primocin (InVivoGen) and incubated for 6 hours at 37° C., 5% CO2. After 6 hours, cells were washed twice and incubated overnight at 37° C., 5% CO2 with Hepatocytes defined medium (Corning) supplemented with 2 mM Glutamax (Gibco), and 1× Penicillin/Streptomycin. On day 1, cells were washed twice and incubated for 24 h in the hepatocyte culture media in the same conditions described above.
On day 2, cells were washed twice with DPBS 1× (Gibco) to remove excess amino acids and maintained in pretreatment media (1×HMDB, a defined custom amino acid concentration based on the mean physiological concentrations in blood, in WEM±supplemental amino acids): • a. Amino acid-free WEM (US Biologicals) supplemented with 11 mM Glucose (Sigma), 0.272 mM Sodium Pyruvate (Sigma), 1× P/S (Gibco) and containing 1×HMDB with no supplemental amino acids; or • b. The same media described above 1×HMDB WEM with supplemental amino acid and amino acid combination treatments at various concentrations. Cells were maintained in the defined media (a. & b.) for 24 hours at 37° C., 5% CO2. The HMDB values are published in the Human Metabolome Database (Wishart D S, Tzur D, Knox C, et al., HMDB: the Human Metabolome Database. Nucleic Acids Res. 2007 January; 35 (Database issue):D521-6. 17202168; which is hereby incorporated by reference in its entirety). Co-Treatment with Free Fatty Acids and Amino Acids Combination
After 24 h pre-treatment, cells maintained in the pretreatment media±supplemental amino acids (section (a. & b.) described above) were exposed to free fatty acids (FFA) at 250 uM with a ratio of 2:1 (Oleate:Palmitate) supplemented with TNF-α (Thermofisher) at 1 ng/ml. Cells were incubated with the FFAs mixture (FFAs+TNF-α)±supplemental amino acids treatments for 24 hours at 37° C., 5% CO2. After 24 hours incubation, media was removed for cytokine analysis and replaced by fresh media containing the same conditions described above (FFAs mixture±supplemental amino acids treatments). Cells were incubated for an additional 48 hours for a total of 72 hours of FFA and TNF-α stimulation. After 72 hours of incubation, media was removed for albumin and urea analysis and the cells were fixed for nuclei and lipid staining.
Albumin secretion was measured as a functionality test in primary human hepatocytes. Albumin was measured by ELISA (Human Albumin ELISA Quantitation set, Bethyl Laboratories) at 1/200 dilution in the sample diluent (Bethyl Laboratories). Data is reported as median fold change from control, statistical analysis was done using t-Test.

## CC(=O)N[C@@H](CS)C(=O)O [Nac, N-acetylcysteine]
[1]; FFA + TNF, 72 h, two donors, AA Conc 1X, Nac/Car 7.5 mM
  Triglyceride Level relative to the baseline FFA + TNF, Median: −1.172
[1]; FFAs+TNFα, two healthy donors
  triglyceride level (in words): reduces triglyceride level but the effect was less pronounced than the combinations described previously
TNFa
  LPS-stimulated TNFa secretion (in words): decreased LPS-stimulated IL-6 and TNFa secretion
IL-6
  LPS-stimulated IL-6 secretion (in words): decreased LPS-stimulated IL-6 and TNFa secretion
Albumin; hepatocyte donor 1
  albumin secretion (in words): slightly decreased albumin secretion
Albumin; hepatocyte donor 2
  albumin secretion (in words): induce albumin secretion
